Earlier results, collected in US20220347157A1, “SUSTAINED RELEASE PHARMACEUTICAL COMPOSITIONS COMPRISING (1R, 5S)-1-(NAPHTHALEN-2-YL)-3-AZABICYCLO[3.1.0]HEXANE” (OTSUKA AMERICA PHARMACEUTICAL, INC., priority 2013, published 2022).

Experiments:
[1] = molecular target: serotonin reuptake (5-HT) (Homo sapiens, UniProt P31645); settings: fraction of the potency towards norepinephrine reuptake
dopamine reuptake (DA) = dopamine reuptake (DA) (Homo sapiens, UniProt Q01959); settings: fraction of the potency towards norepinephrine reuptake
dopamine reuptake (DA), sequence (Q01959 whole entry): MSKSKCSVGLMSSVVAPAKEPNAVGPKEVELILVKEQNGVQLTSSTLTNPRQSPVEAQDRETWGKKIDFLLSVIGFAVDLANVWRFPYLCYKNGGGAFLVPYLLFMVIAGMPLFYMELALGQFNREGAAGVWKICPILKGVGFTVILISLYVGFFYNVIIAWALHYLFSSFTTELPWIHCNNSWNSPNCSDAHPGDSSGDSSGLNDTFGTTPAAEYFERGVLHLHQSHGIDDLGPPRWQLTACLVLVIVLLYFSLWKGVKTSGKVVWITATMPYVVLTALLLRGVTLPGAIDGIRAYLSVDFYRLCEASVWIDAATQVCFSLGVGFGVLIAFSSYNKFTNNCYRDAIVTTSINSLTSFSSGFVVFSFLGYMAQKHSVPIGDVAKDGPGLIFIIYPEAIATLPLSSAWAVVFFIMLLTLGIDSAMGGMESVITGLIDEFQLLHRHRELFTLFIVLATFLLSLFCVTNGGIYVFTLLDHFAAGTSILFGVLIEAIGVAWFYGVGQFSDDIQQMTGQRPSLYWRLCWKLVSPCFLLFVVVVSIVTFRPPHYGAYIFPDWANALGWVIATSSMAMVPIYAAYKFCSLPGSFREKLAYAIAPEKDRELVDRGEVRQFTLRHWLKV

serotonin reuptake (5-HT), sequence (P31645 whole entry): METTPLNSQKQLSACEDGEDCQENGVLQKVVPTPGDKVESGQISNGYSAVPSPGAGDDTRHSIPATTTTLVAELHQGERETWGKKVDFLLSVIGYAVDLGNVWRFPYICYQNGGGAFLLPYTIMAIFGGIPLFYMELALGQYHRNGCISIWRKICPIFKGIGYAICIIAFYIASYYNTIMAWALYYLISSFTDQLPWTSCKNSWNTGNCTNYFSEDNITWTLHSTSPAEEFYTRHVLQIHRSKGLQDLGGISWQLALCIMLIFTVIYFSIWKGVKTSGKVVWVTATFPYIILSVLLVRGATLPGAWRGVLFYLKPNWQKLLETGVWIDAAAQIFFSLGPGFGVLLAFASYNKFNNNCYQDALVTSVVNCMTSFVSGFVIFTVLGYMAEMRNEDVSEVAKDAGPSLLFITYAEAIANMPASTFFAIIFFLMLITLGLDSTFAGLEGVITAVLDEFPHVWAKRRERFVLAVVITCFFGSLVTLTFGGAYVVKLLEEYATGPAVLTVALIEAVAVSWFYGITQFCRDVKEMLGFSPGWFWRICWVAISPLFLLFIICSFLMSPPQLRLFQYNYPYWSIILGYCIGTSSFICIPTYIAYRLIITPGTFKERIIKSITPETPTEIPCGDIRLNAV

Which results are given for `c1ccc2cc([C@]34CNC[C@H]3C4)ccc2c1` [(1R,5S)-1-(naphthalen-2-yl)-3-azabicyclo[3.1.0]hexane]?
potency towards serotonin reuptake (5-HT) relative to norepinephrine reuptake (NE) [1]: one-fourteenth as much; potency towards dopamine reuptake (DA) relative to norepinephrine reuptake (NE) (dopamine reuptake (DA)): one-sixth as much
